PubChem BioAssay AID248 (DTP/NCI, 2004)
Several values for one entry are separate records, joined by “and”; a condition that tells them apart may be missing. Equal values may be shown once. Toxic doses and inconclusive results are not listed. Rule as the data show it: active = T/C of 150% or more; inactive = T/C below 125%.

Test system: L1210 leukemia ip in BDF1 mice, survival T/C
Test: NCI In Vivo Anticancer Drug Screen. Data for tumor model L1210 Leukemia (intraperitoneal) in B6D2F1 (BDF1) mice
Settings: endpoint: mean survival time, higher = longer survival
In short: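 Ratio derived from survival: compound-dosed mice over vehicle-dosed mice, all bearing a transplantable tumor.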

[1] = dose: 100.0 mg/kg/injection, schedule: Q01DX009 (ip), vehicle: saline
[2] = dose: 100.0 mg/kg/injection, schedule: Q04DX003 (ip), vehicle: saline
[3] = dose: 200.0 mg/kg/injection, schedule: Q01DX009 (ip), vehicle: saline
[4] = dose: 200.0 mg/kg/injection, schedule: Q04DX003 (ip), vehicle: saline
[5] = dose: 400.0 mg/kg/injection, schedule: Q01DX009 (ip), vehicle: saline
[6] = dose: 400.0 mg/kg/injection, schedule: Q04DX003 (ip), vehicle: saline
[7] = dose: 100.0 mg/kg/injection, schedule: Q01DX001 (ip), vehicle: saline
[8] = dose: 200.0 mg/kg/injection, schedule: Q01DX001 (ip), vehicle: saline
[9] = dose: 400.0 mg/kg/injection, schedule: Q01DX001 (ip), vehicle: saline
[10] = dose: 5.0 mg/kg/injection, schedule: Q01DX001 (ip), vehicle: saline
[11] = dose: 10.0 mg/kg/injection, schedule: Q01DX001 (ip), vehicle: saline
[12] = dose: 20.0 mg/kg/injection, schedule: Q01DX001 (ip), vehicle: saline
[13] = dose: 40.0 mg/kg/injection, schedule: Q01DX001 (ip), vehicle: saline
[14] = dose: 75.0 mg/kg/injection, schedule: Q01DX001 (ip), vehicle: saline
[15] = dose: 100.0 mg/kg/injection, schedule: Q04DX003 (ip), vehicle: Klucel (hydroxypropylcellulose) (HPC)
[16] = dose: 200.0 mg/kg/injection, schedule: Q04DX003 (ip), vehicle: Klucel (hydroxypropylcellulose) (HPC)
[17] = dose: 400.0 mg/kg/injection, schedule: Q04DX003 (ip), vehicle: Klucel (hydroxypropylcellulose) (HPC)
[18] = dose: 50.0 mg/kg/injection, schedule: Q04DX002 (ip), vehicle: Klucel (hydroxypropylcellulose) (HPC)
[19] = dose: 100.0 mg/kg/injection, schedule: Q04DX002 (ip), vehicle: Klucel (hydroxypropylcellulose) (HPC)
[20] = dose: 200.0 mg/kg/injection, schedule: Q04DX002 (ip), vehicle: Klucel (hydroxypropylcellulose) (HPC)
[21] = dose: 50.0 mg/kg/injection, schedule: Q01DX009 (ip), vehicle: saline
[22] = dose: 100.0 mg/kg/injection, schedule: Q01DX009 (ip), vehicle: saline with Tween-80
[23] = dose: 200.0 mg/kg/injection, schedule: Q01DX009 (ip), vehicle: saline with Tween-80
[24] = dose: 400.0 mg/kg/injection, schedule: Q01DX009 (ip), vehicle: saline with Tween-80
[25] = dose: 100.0 mg/kg/injection, schedule: Q01DX001 (ip), vehicle: Klucel (hydroxypropylcellulose) (HPC)
[26] = dose: 200.0 mg/kg/injection, schedule: Q01DX001 (ip), vehicle: Klucel (hydroxypropylcellulose) (HPC)

Measured: T/C

CCCCCC(N)CC(=O)O (configuration not stated)
inactive: [1] 105 % of control | [2] 102 % of control | [3] 96 % of control | [4] 96 % of control | [5] 96 % of control | [6] 105 % of control

CC(C)(C)CC(C)(C)N(CSc1ccc2ccccc2c1)CSc1ccc2ccccc2c1
inactive: [7] 98 % of control | [8] 98 % of control | [9] 91 % of control

O=C1C=C(Nc2ccc(O)cc2)c2ccccc2C1=O
inactive: dose: 3.12 mg/kg/injection, schedule: Q01DX009 (ip), vehicle: saline 107 % of control | dose: 6.25 mg/kg/injection, schedule: Q01DX009 (ip), vehicle: saline 102 % of control | dose: 12.5 mg/kg/injection, schedule: Q01DX009 (ip), vehicle: saline 103 % of control | dose: 25.0 mg/kg/injection, schedule: Q01DX009 (ip), vehicle: saline 91 % of control | dose: 50.0 mg/kg/injection, schedule: Q04DX003 (ip), vehicle: saline 103 % of control | dose: 75.0 mg/kg/injection, schedule: Q01DX001 (ip), vehicle: carboxymethylcellulose (CMC) 93 % of control | [2] 95 % of control | dose: 150.0 mg/kg/injection, schedule: Q01DX001 (ip), vehicle: carboxymethylcellulose (CMC) 100 % of control | dose: 300.0 mg/kg/injection, schedule: Q01DX001 (ip), vehicle: carboxymethylcellulose (CMC) 90 % of control

COc1cc(C[N+]23CC[N+](Cc4cc(OC)cc(OC)c4)(CC2)C3)cc(OC)c1
inactive: [10] 100 % of control | [11] 100 % of control | [12] 103 % of control | [13] 103 % of control | dose: 80.0 mg/kg/injection, schedule: Q01DX001 (ip), vehicle: saline 100 % of control

CCCCCCCCCC(=S)N1CCN(c2ccccc2)CC1
inactive: [7] 95 % of control | [8] 93 % of control | [9] 90 % of control

C#CC(OC(=O)N(C)C)(c1ccccc1)c1ccc(F)cc1 (configuration not stated)
inactive: [10] 108 % of control | [11] 105 % of control | [12] 109 % of control | [13] 117 % of control

COc1ccc2c(c1O)C1(CCN(C)C)CC(=O)CCC1C=C2 (configuration not stated)
inactive: [14] 96 % of control | dose: 150.0 mg/kg/injection, schedule: Q01DX001 (ip), vehicle: saline 100 % of control | dose: 300.0 mg/kg/injection, schedule: Q01DX001 (ip), vehicle: saline 89 % of control

CCOC(=O)c1ccc(N=Cc2cccc([N+](=O)[O-])c2)cc1
inactive: [15] 89 % of control | [16] 88 % of control | [17] 96 % of control

CSc1nccc(=S)[nH]1
inactive: [18] 88 % of control | [19] 92 % of control | [20] 95 % of control

CN1NC(=O)C2CCCC1O2 (configuration not stated)
inactive: [7] 95 % of control | [8] 105 % of control | [9] 94 % of control

CC(C)=CCC(N)CC=C(C)C
inactive: dose: 12.5 mg/kg/injection, schedule: Q01DX009 (ip), vehicle: Klucel (hydroxypropylcellulose) (HPC) 91 % of control | dose: 25.0 mg/kg/injection, schedule: Q01DX009 (ip), vehicle: Klucel (hydroxypropylcellulose) (HPC) 102 % of control | dose: 25.0 mg/kg/injection, schedule: Q04DX002 (ip), vehicle: Klucel (hydroxypropylcellulose) (HPC) 112 % of control | dose: 50.0 mg/kg/injection, schedule: Q01DX009 (ip), vehicle: Klucel (hydroxypropylcellulose) (HPC) 106 % of control | [18] 105 % of control

CCOC(=O)C1=C(C)NC(=O)NN1C(=O)OCC
inactive: [21] 113 % of control

CNC(=O)O/N=C/c1cccc(OC)c1
inactive: [22] 93 % of control | [23] 100 % of control | [24] 95 % of control

O=C(O)Cc1ccc(C2CCCCC2)cc1
inactive: dose: 37.5 mg/kg/injection, schedule: Q01DX Z (ip), vehicle: carboxymethylcellulose (CMC) 98 % of control | dose: 75.0 mg/kg/injection, schedule: Q01DX Z (ip), vehicle: carboxymethylcellulose (CMC) 95 % of control | dose: 150.0 mg/kg/injection, schedule: Q01DX Z (ip), vehicle: carboxymethylcellulose (CMC) 102 % of control | dose: 300.0 mg/kg/injection, schedule: Q01DX Z (ip), vehicle: carboxymethylcellulose (CMC) 102 % of control

CSc1cccc[n+]1C
inactive: [14] 104 % of control

CC1CCCC(C)N1N (configuration not stated)
inactive: dose: 100.0 mg/kg/injection, schedule: Q01DX001 (ip), vehicle: saline with Tween-80 97 % of control | dose: 200.0 mg/kg/injection, schedule: Q01DX001 (ip), vehicle: saline with Tween-80 93 % of control | dose: 400.0 mg/kg/injection, schedule: Q01DX001 (ip), vehicle: saline with Tween-80 95 % of control

CCCCCNc1ccnc(=O)[nH]1
inactive: dose: 50.0 mg/kg/injection, schedule: Q01DX001 (ip), vehicle: Klucel (hydroxypropylcellulose) (HPC) 99 % of control | [25] 94 % of control | [26] 96 % of control

CC[C@@]1(O)C(=O)OCc2c1cc1n(c2=O)Cc2cc3ccccc3[n+]([O-])c2-1
inactive: dose: 1.0 mg/kg/injection, schedule: Q01DX015 (ip), vehicle: saline 112 % of control | dose: 8.0 mg/kg/injection, schedule: Q01DX015 (ip), vehicle: saline 86 % of control | dose: 12.5 mg/kg/injection, schedule: Q01DX001 (ip), vehicle: saline 115 % of control

CCN(CC)CCNC(c1ccccc1)C(Cl)(Cl)Cl (configuration not stated)
inactive: [7] 100 % of control

CC(=O)CCC(=O)OC(C)(C)CN
inactive: dose: 50.0 mg/kg/injection, schedule: Q01DX009 (ip), vehicle: saline with Tween-80 102 % of control | dose: 50.0 mg/kg/injection, schedule: Q04DX003 (ip), vehicle: saline with Tween-80 99 % of control | [22] 103 % of control | dose: 100.0 mg/kg/injection, schedule: Q04DX003 (ip), vehicle: saline with Tween-80 87 % of control | [23] 107 % of control | dose: 200.0 mg/kg/injection, schedule: Q04DX003 (ip), vehicle: saline with Tween-80 91 % of control | [24] 103 % of control | dose: 400.0 mg/kg/injection, schedule: Q04DX003 (ip), vehicle: saline with Tween-80 96 % of control

Cc1ccc(C(=O)OCc2ccccc2CN(C)C)cc1
inactive: [19] 94 % of control | [20] 94 % of control | dose: 400.0 mg/kg/injection, schedule: Q04DX002 (ip), vehicle: Klucel (hydroxypropylcellulose) (HPC) 102 % of control

COC(=O)c1cccc(C)c1C(=O)c1ccccc1
inactive: dose: 100.0 mg/kg/injection, schedule: Q01DX009 (ip), vehicle: Klucel (hydroxypropylcellulose) (HPC) 104 % of control | [15] 101 % of control | dose: 200.0 mg/kg/injection, schedule: Q01DX009 (ip), vehicle: Klucel (hydroxypropylcellulose) (HPC) 96 % of control | [16] 101 % of control | dose: 400.0 mg/kg/injection, schedule: Q01DX009 (ip), vehicle: Klucel (hydroxypropylcellulose) (HPC) 98 % of control | [17] 95 % of control

CCCCCCCCCCCCCSCCCCCCSCCCCCCCCCCCCC
inactive: [25] 89 % of control | [26] 96 % of control | dose: 400.0 mg/kg/injection, schedule: Q01DX001 (ip), vehicle: Klucel (hydroxypropylcellulose) (HPC) 98 % of control

CCc1nccc(=O)[nH]1
inactive: [21] 102 % of control and 101 % of control | [1] 88 % of control and 110 % of control | [2] 94 % of control and 110 % of control | [3] 100 % of control and 103 % of control | [4] 89 % of control and 104 % of control

CC1CCOC(C)O1 (configuration not stated)
inactive: [1] 103 % of control | [2] 100 % of control | [3] 91 % of control | [4] 94 % of control | [5] 96 % of control | [6] 94 % of control
